Target: T1, PriSLX (Saccharolobus solfataricus, UniProt Q97Z83+Q97ZS7)
T1 sequence (Q97Z83 1-330): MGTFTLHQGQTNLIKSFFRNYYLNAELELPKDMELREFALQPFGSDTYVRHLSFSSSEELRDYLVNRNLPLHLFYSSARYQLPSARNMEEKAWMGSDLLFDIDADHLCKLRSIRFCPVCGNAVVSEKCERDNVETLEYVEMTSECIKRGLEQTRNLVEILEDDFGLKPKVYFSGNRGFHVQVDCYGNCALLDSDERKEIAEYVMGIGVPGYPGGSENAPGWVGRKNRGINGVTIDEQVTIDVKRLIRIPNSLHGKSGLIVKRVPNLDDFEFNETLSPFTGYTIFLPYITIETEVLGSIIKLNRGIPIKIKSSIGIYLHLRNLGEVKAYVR
T1 sequence (Q97ZS7 1-154): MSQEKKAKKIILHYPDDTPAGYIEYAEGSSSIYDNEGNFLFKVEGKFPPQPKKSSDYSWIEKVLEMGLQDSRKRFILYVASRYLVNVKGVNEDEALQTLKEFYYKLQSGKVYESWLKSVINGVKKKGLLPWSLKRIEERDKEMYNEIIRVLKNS
T1 sequence (Q9UWW1 1-307 partner): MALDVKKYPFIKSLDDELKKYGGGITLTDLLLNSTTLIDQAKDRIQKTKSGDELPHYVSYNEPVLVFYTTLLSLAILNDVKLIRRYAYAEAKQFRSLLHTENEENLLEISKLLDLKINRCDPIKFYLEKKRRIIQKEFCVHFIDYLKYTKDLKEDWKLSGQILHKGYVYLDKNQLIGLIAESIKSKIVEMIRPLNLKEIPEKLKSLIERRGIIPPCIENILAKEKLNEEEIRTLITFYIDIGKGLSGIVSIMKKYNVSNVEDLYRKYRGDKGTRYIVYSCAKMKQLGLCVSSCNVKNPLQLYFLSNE
Assay: primer synthesis, […]-labelled nucleotide, gel
Type: biochemical
Settings: poly(dT) template; pH 6.0, 10 mM MnCl2, 10 µM ZnCl2, 75 °C

Nc1ncnc2c1ncn2[C@H]1C[C@H](O)[C@@H](COP(=O)(O)OP(=O)(O)OP(=O)(O)O)O1 [dATP]
primer synthesis, 32P-labelled nucleotide, gel: reactions with solely dATP as substrate primarily generate a lower yield

Source: paper PMC6042085 (Proceedings of the National Academy of Sciences of the …, 2018)
